The values below are quoted from earlier work in patent publication US8175817B2, “Reciprocal symmetry plots as a new representation of countercurrent chromatograms” (The Board of Trustees of the University of Illinois, priority 2007, dated 2012).

The conditions of this data set: octanol/water; extremes of the GUESSmix compounds found in the region of optimal resolution.

Turning to `CC(C)CCC[C@@H](C)[C@H]1CC[C@H]2[C@@H]3CC=C4C[C@@H](O)CC[C@]4(C)[C@H]3CC[C@]12C` [cholesterol], the “Log Koctanol/water” value is recorded as 9.52.
